Holding throughout (type): cell-based
Test [1] deals with T1, KRAS G12V protein in SW900 cells (Homo sapiens, UniProt P01116, G12V).
T1 construct: endogenous in cells; host or cells: SW900
Nature of the test: KRAS degradation assay (Western Blot) in SW900 cells. Particulars: 24 h. The method, boiled down:
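Degradation of KRAS measured by Western blot after 24 h exposure to compound (0.03–3000 nM final). Values are DC50 and Dmax.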

Test [2] relates to KRAS G12D mutant human lung cancer cell A427. Nature of the test: 3D cell proliferation inhibition assay, A427. The conditions noted are these: A-427, 168 h, 3D culture, 7 days, CTG. The source says:
(§1) Test Example 6: 3D Cell Proliferation Inhibition Assay
(§2) The inhibitory effects of the compounds on 3D cell proliferation were investigated on KRAS G12C mutant human non-small cell lung cancer cell NCI-H358, KRAS G12D mutant human lung cancer cell A427, KRAS G12D mutant human gastric cancer cell AGS, KRAS G12D mutant human metastatic pancreatic cancer cell AsPc-1, KRAS G12V mutant human lung squamous carcinoma cell SW900, KRAS G12V mutant human colorectal cancer cell SW620, KRAS G13D mutant human colorectal cancer epithelial cell DLD-1, and KRAS WT human gastric cancer cell MKN1. The specific procedures were as follows:
(§3) 10 μL of each compound solution diluted in a gradient was added to corresponding wells of a 96-well low-adsorption microplate (PerkinElmer), so that the final concentrations of the test compounds in the reaction system were in a range of 10000-0.026 nM. The final concentration of DMSO was 0.2%. Then 90 µL of cells were correspondingly seeded into each well to achieve a cell density of 5×10^2 cells/well (the cell density of SW900 was 5×10^3 cells/well, and the cell density of MKN1 was 1×10^3 cells/well). In addition to test wells for the test compounds, both a DMSO control well and a medium control well were set, with the DMSO control well containing DMSO and cells and the medium well containing only a medium. After the sample loading, the 96-well low-adsorption microplate was incubated in an incubator at 37° C. with […] for 7 days. After 7 days, the microplate was taken out, and 100 μL of CTG reagent (Promega) was added to each well. The plate was incubated at room temperature for 60 m and read on a microplate reader EnVision by the chemiluminescence program. The inhibition rates of the compounds at each concentration were calculated using the formula for the percentage inhibition of cell proliferation: inhibition rate 00=(mean value of DMSO control group−single concentration reading value of compound)/(mean value of DMSO control group−mean value of medium control group)×100. Then non-linear curve fillings for logarithmic concentration-inhibition rate were performed by GraphPad Prism 8, and the IC50 values of the compounds were obtained (Table 6).

For test [3], the system named is KRAS G12D mutant human gastric cancer cell AGS. Nature of the test: 3D cell proliferation inhibition assay, AGS. Particulars: 168 h, 3D culture, 7 days, CTG.
Source text: as §1, §2, §3

In test [4] the test system is KRAS G12D mutant human metastatic pancreatic cancer cell AsPc-1. Nature of the test: 3D cell proliferation inhibition assay, AsPc-1. The conditions noted are these: ASPC1, 168 h, 3D culture, 7 days, CTG. The method, boiled down: (§4)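 Seven-day 3D growth at 37 °C in low-adsorption wells, 5×10^2 cells/well except MKN1 (1×10^3), final compound range 10000–0.026 nM in 0.2% DMSO. CTG luminescence read-out; percent inhibition set against DMSO and medium-only wells, IC50 by curve fitting.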

In test [5] the test system is KRAS G12C mutant human non-small cell lung cancer cell NCI-H358. Nature of the test: 3D cell proliferation inhibition assay, NCI-H358. Particulars: NCI-H358, 168 h, 3D culture, 7 days, CTG. The procedure, abridged:
as §4

The test system of test [6] is KRAS G12V mutant human lung squamous carcinoma cell SW900. Nature of the test: 3D cell proliferation inhibition assay, SW900. Particulars: SW900, 168 h, 3D culture, 7 days, CTG.
The subject of test [7] is KRAS G13D mutant human colorectal cancer epithelial cell DLD-1. Nature of the test: 3D cell proliferation inhibition assay, DLD-1. The conditions noted are these: DLD-1, 168 h, 3D culture, 7 days, CTG. The procedure, abridged: as §4
Test [8] relates to KRAS WT human gastric cancer cell MKN1. Nature of the test: 3D cell proliferation inhibition assay, MKN1. The conditions noted are these: MKN-1, 168 h, 3D culture, 7 days, CTG. The procedure, abridged: as §4
Test [9] concerns KRAS G12V mutant human colorectal cancer cell SW620. Nature of the test: 3D cell proliferation inhibition assay, SW620. Particulars: SW-620, 168 h, 3D culture, 7 days, CTG. The procedure, abridged:
as §4

A value given as a limit tells only on which side of the number the result lay.

Usually DC50 stands for the concentration giving 50% degradation. Higher therefore signals a less potent degrader. As a reminder, the Dmax is the greatest extent of degradation seen. As a reminder, the IC50 is the point on the concentration scale where inhibition reaches its midpoint. Low values mean greater potency in that assay, high ones weaker potency in that assay.

T1 sequence (P01116 1-188 isoform P01116-2 G12V): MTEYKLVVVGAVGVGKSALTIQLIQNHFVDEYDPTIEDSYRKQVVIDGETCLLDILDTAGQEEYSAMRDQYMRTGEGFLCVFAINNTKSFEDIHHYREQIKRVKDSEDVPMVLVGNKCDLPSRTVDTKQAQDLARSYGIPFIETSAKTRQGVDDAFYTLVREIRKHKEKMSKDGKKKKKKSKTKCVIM

As for `CCc1c(F)ccc2cc(O)cc(-c3ncc4c(N5CCC[C@@](C)(O)C5)nc(OCC5(CN6CCC(CCOCC7CCN(C(=O)c8ccc(Cl)c(N9CCC(=O)NC9=O)c8)CC7)CC6)CC5)nc4c3F)c12` [Example 5, (R)-1-(2-chloro-5-(4-((2-(1-((1-(((7-(8-ethyl-7-fluoro-3-hydroxynaphthalen-1-yl)-8-fluoro-4-(3-hydroxy-3-methylpiperidin-1-yl)pyrido[4,3-d]pyrimidin-2-yl)oxy)methyl)cyclopropyl)methyl)piperidin-4-yl)ethoxy)methyl)piperidine-1-carbonyl)phenyl)dihydropyrimidine-2,4(1H,3H)-dione], the DC50 in [1] was no more than 50 nM. This compound had a Dmax in test [1] of 80 to 100%. Further, the IC50 was no more than 50 nM in test [2]; no more than 50 nM in [3]; no more than 50 nM in [4]; no more than 50 nM in test [5]; 50 to 100 nM in [6]; no more than 50 nM in test [7]. In addition, the IC50 in test [8] is no more than 50 nM.

In turn, `C#Cc1c(F)ccc2cc(O)cc(-c3ncc4c(N5CCC[C@@](C)(O)C5)nc(OCC5(CN6CCC(CCOCC7CCN(C(=O)c8ccc(Cl)c(N9CCC(=O)NC9=O)c8)CC7)CC6)CC5)nc4c3F)c12` [Example 8, (R)-1-(2-chloro-5-(4-((2-(1-((1-(((7-(8-ethynyl-7-fluoro-3-hydroxynaphthalen-1-yl)-8-fluoro-4-(3-hydroxy-3-methylpiperidin-1-yl)pyrido[4,3-d]pyrimidin-2-yl)oxy)methyl)cyclopropyl)methyl)piperidin-4-yl)ethoxy)methyl)piperidine-1-carbonyl)phenyl)dihydropyrimidine-2,4(1H,3H)-dione] yielded a DC50 in test [1] of no more than 50 nM. For the same compound, in [1], the Dmax fell in the range of 80 to 100%. Also, the IC50 in test [2] is 50 to 100 nM; in test [3], no more than 50 nM; in test [4], no more than 50 nM; in test [5], no more than 50 nM; in [6] it was no more than 50 nM; in [7], no more than 50 nM. The IC50 in test [8] is no more than 50 nM.

Regarding `C#Cc1c(F)ccc2cc(O)cc(-c3ncc4c(N5CCC[C@@](C)(O)C5)nc(OCC5(CN6CCN(CCC7CCC8(CC7)CCN(C(=O)c7ccc(Cl)c(N9CCC(=O)NC9=O)c7)CC8)CC6)CC5)nc4c3F)c12` [Example 9, (R)-1-(2-chloro-5-(9-(2-(4-((1-(((7-(8-ethynyl-7-fluoro-3-hydroxynaphthalen-1-yl)-8-fluoro-4-(3-hydroxy-3-methylpiperidin-1-yl)pyrido[4,3-d]pyrimidin-2-yl)oxy)methyl)cyclopropyl)methyl)piperazin-1-yl)ethyl)-3-azaspiro[5.5]undecane-3-carbonyl)phenyl)dihydropyrimidine-2,4(1H,3H)-dione], the DC50 in test [1] was no more than 50 nM. This compound showed a Dmax in [1] of 80 to 100%. The IC50 is no more than 50 nM in test [2]; no more than 50 nM in test [3]; 50 to 100 nM in test [4]; no more than 50 nM in [5]; no more than 50 nM in [6]; no more than 50 nM in test [7]. In test [8], this compound returned an IC50 of no more than 50 nM.

Regarding `C#Cc1c(F)ccc2cc(O)cc(-c3ncc4c(N5CCC[C@@](C)(O)C5)nc(OCC5(CN6CCC(COCCC7CCN(C(=O)c8ccc(Cl)c(N9CCC(=O)NC9=O)c8)CC7)CC6)CC5)nc4c3F)c12` [Example 10, (R)-1-(2-chloro-5-(4-(2-((1-((1-(((7-(8-ethynyl-7-fluoro-3-hydroxynaphthalen-1-yl)-8-fluoro-4-(3-hydroxy-3-methylpiperidin-1-yl)pyrido[4,3-d]pyrimidin-2-yl)oxy)methyl)cyclopropyl)methyl)piperidin-4-yl)methoxy)ethyl)piperidine-1-carbonyl)phenyl)dihydropyrimidine-2,4(1H,3H)-dione], the DC50 in [1] is no more than 50 nM. This compound also yielded a Dmax in [1] of 80 to 100%. The half-maximal inhibitory concentration (IC50) in test [2] was 50 to 100 nM; in [3] it was no more than 50 nM; in test [4], 50 to 100 nM; in [5], no more than 50 nM; in [6] it was no more than 50 nM; in [7], 50 to 100 nM. This compound also gave an IC50 in test [8] of no more than 50 nM.

As to `CCc1c(F)ccc2cc(O)cc(-c3ncc4c(N5CCC[C@@](C)(O)C5)nc(OCC5(CN6CCN(CC7CCC8(CC7)CCN(C(=O)c7ccc(C)c(N9CCC(=O)NC9=O)c7)CC8)CC6)CC5)nc4c3F)c12` [Example 19, (R)-1-(5-(9-((4-((1-(((7-(8-ethyl-7-fluoro-3-hydroxynaphthalen-1-yl)-8-fluoro-4-(3-hydroxy-3-methylpiperidin-1-yl)pyrido[4,3-d]pyrimidin-2-yl)oxy)methyl)cyclopropyl)methyl)piperazin-1-yl)methyl)-3-azaspiro[5.5]undecane-3-carbonyl)-2-methylphenyl)dihydropyrimidine-2,4(1H,3H)-dione], the DC50 in [1] was no more than 50 nM. Further, in test [1], the Dmax fell in the range of 80 to 100%. The IC50 in [2] was 100 to 500 nM; in test [3] it was no more than 50 nM; in test [4], no more than 50 nM; in [5] it was no more than 50 nM; in test [6], no more than 50 nM; in [9], 0.82 nM. Also, the IC50 in test [7] and in [8] was no more than 50 nM each time.

`CCc1cccc2cc(O)cc(-c3ncc4c(N5CCC[C@@](C)(O)C5)nc(OCC5(CN6CCN(CC7CCC8(CC7)CCN(C(=O)c7ccc(F)c(N9CCC(=O)NC9=O)c7)CC8)CC6)CC5)nc4c3F)c12` [Example 28, (R)-1-(5-(9-((4-((1-(((7-(8-ethyl-3-hydroxynaphthalen-1-yl)-8-fluoro-4-(3-hydroxy-3-methylpiperidin-1-yl)pyrido[4,3-d]pyrimidin-2-yl)oxy)methyl)cyclopropyl)methyl)piperazin-1-yl)methyl)-3-azaspiro[5.5]undecane-3-carbonyl)-2-fluorophenyl)dihydropyrimidine-2,4(1H,3H)-dione] displayed a DC50 in [1] of no more than 50 nM. Moreover, the Dmax in test [1] was 80 to 100%. Further, the IC50 is 100 to 500 nM in test [2]; no more than 50 nM in [3]; no more than 50 nM in [4]; no more than 50 nM in test [5]; no more than 50 nM in test [6]; no more than 50 nM in test [7]. Besides, the IC50 in [8] is no more than 50 nM.

In [1], `C#Cc1c(F)ccc2cc(O)cc(-c3ncc4c(N5CCC[C@@H](O)C5)nc(OCC5(CN6CCN(CC7CCC8(CC7)CCN(C(=O)c7ccc(C)c(N9CCC(=O)NC9=O)c7)CC8)CC6)CC5)nc4c3F)c12` [Example 45, (R)-1-(5-(9-((4-((1-(((7-(8-ethynyl-7-fluoro-3-hydroxynaphthalen-1-yl)-8-fluoro-4-(3-hydroxypiperidin-1-yl)pyrido[4,3-d]pyrimidin-2-yl)oxy)methyl)cyclopropyl)methyl)piperazin-1-yl)methyl)-3-azaspiro[5.5]undecane-3-carbonyl)-2-methylphenyl)dihydropyrimidine-2,4(1H,3H)-dione] displayed a DC50 of no more than 50 nM. In addition, in [1], the Dmax was 80 to 100%. Also, the IC50 was 50 to 100 nM in test [2]; no more than 50 nM in test [3]; no more than 50 nM in test [4]; 100 to 500 nM in test [5]; no more than 50 nM in test [6]; no more than 50 nM in test [7]. Besides, in test [8], the IC50 lay within 50 to 100 nM.

Values taken from US20260167622A1, “PAN-KRAS DEGRADING AGENT, AND PREPARATION METHOD THEREFOR AND USE THEREOF” (LEADINGTAC PHARMACEUTICAL (SHAOXING) CO., LTD., priority 2022, published 2026).
